Measurements: patent publication US20200369630A1, “HERBICIDALLY ACTIVE 3-PHENYL-5-TRIFLUOROMETHYLISOXAZOLINE-5-CARBOXAMIDES OF CYCLOPENTYLCARBOXYLIC ACIDS AND ESTERS” (Bayer Aktiengesellschaft, priority 2017, published 2020)

Experiments:
Assay in all cases: Post-emergence herbicidal action
Format in all cases: in vivo
STEME: Stellaria media = details: Table C2, post-emergence, dosage 320 (0.32 kg of active substance per hectare), rated visually after about 3 weeks
Method: (§1) [table] Seeds of monocotyledonous and dicotyledonous weeds and crop plants are placed in sandy loam in plastic or wood-fiber pots, covered with soil and cultivated in a greenhouse under controlled growth conditions. 2 to 3 weeks after sowing, the test plants are treated at the one-leaf stage. The compounds of the invention, formulated in the form of wettable powders (WP) or as emulsion concentrates (EC), are then sprayed onto the green parts of the plants as aqueous suspension or emulsion with addition of 0.5% additive at a water application rate of […] (converted). After the test plants had been kept in the greenhouse under optimum growth conditions for about 3 weeks, the activity of the preparations is rated visually in comparison to untreated controls. For example, 100% activity=the plants have died, 0% activity=like control plants.

VERPE: Veronica persica = details: rated visually after about 3 weeks
Method: as §1

[1] = tested on: ECHCG: Echinochloa crus-galli; details: Table C2, post-emergence, dosage 320 (0.32 kg of active substance per hectare), rated visually after about 3 weeks
Method: as §1

AVEFA: Avena fatua = details: Table C2, post-emergence, dosage 320 (0.32 kg of active substance per hectare), rated visually after about 3 weeks
Method: as §1

HORMU: Hordeum murinum = details: rated visually after about 3 weeks
Method: as §1

LOLRI: Lolium rigidum = details: rated visually after about 3 weeks
Method: as §1

[2] = tested on: POLCO: Polygonum convolvulus; details: rated visually after about 3 weeks
Method: as §1

[3] = tested on: AMARE: Amaranthus retroflexus; details: rated visually after about 3 weeks
Method: as §1

[4] = tested on: ALOMY: Alopecurus myosuroides; details: rated visually after about 3 weeks
Method: as §1

[5] = Table C2, post-emergence, dosage 320 (0.32 kg of active substance per hectare)
[6] = Table C4, post-emergence, 320 g/ha

Row | Structure (SMILES) | Herbicidal action against [%] STEME (STEME: Stellaria media) [%] | Herbicidal action against [%] VERPE (VERPE: Veronica persica; [5]) [%] | Herbicidal action against [%] ECHCG [1] [%] | Herbicidal action against [%] AVEFA (AVEFA: Avena fatua) [%] | Herbicidal action against [%] HORMU (HORMU: Hordeum murinum; [5]) [%] | Herbicidal action against [%] LOLRI (LOLRI: Lolium rigidum; [5]) [%] | Herbicidal action against [%] POLCO [2, 5] [%] | Herbicidal action against [%] AMARE [3, 5] [%] | Herbicidal action against [%] ALOMY [4, 5] [%] | Herbicidal action against [%] VERPE (VERPE: Veronica persica; [6]) [%] | Herbicidal action against [%] HORMU (HORMU: Hordeum murinum; [6]) [%] | Herbicidal action against [%] LOLRI (LOLRI: Lolium rigidum; [6]) [%] | Herbicidal action against [%] POLCO [2, 6] [%] | Herbicidal action against [%] AMARE [3, 6] [%] | Herbicidal action against [%] ALOMY [4, 6] [%]
1 | O=C(OCC(F)(F)F)[C@@H]1CC[C@H](NC(=O)[C@@]2(C(F)(F)F)CC(c3cc(F)cc(F)c3)=NO2)C1 [Example I-123] | 90 | 80 | 80 | 90 | 90 | 100 | 90 | 80 | 90 | – | – | – | – | – | –
2 | O=C(OCCCl)C1CCC(NC(=O)C2(C(F)(F)F)CC(c3cccc(F)c3)=NO2)C1 (mixture of isomers) [Example I-409] | 100 | 90 | 100 | 100 | 100 | 100 | 100 | 90 | 100 | – | – | – | – | – | –
3 | CCOC(=O)C1CCC(NC(=O)C2(C(F)(F)F)CC(c3cc(C)cc(F)c3)=NO2)C1 (mixture of isomers) [Example I-543] | 80 | 90 | 90 | 100 | 80 | 90 | 100 | 100 | 90 | – | – | – | – | – | –
4 | Cc1cc(Cl)cc(C2=NOC(C(=O)NC3CCC(C(=O)OCCCl)C3)(C(F)(F)F)C2)c1 (mixture of isomers) [Example I-838] | – | – | – | – | – | – | – | – | – | 80 | 90 | 100 | 100 | 80 | 100
5 | CCOC(=O)C1CCC(NC(=O)C2(C(F)(F)F)CC(c3cccc(F)c3)=NO2)C1 (mixture of isomers) [Example I-339] | 100 | 90 | 100 | 100 | 100 | 100 | 100 | 100 | 100 | – | – | – | – | – | –
6 | COC(=O)C1CCC(NC(=O)C2(C(F)(F)F)CC(c3cc(F)c(F)c(F)c3)=NO2)C1 (mixture of isomers) [Example I-171] | 80 | 80 | 80 | 90 | 80 | 100 | 80 | 80 | 100 | – | – | – | – | – | –
7 | O=C(OCC(F)(F)F)C1CCC(NC(=O)C2(C(F)(F)F)CC(c3cccc(F)c3)=NO2)C1 (mixture of isomers) [Example I-423] | 100 | 90 | 100 | 100 | 100 | 100 | 90 | 90 | 100 | – | – | – | – | – | –
8 | CC(C)OC(=O)[C@@H]1CC[C@H](NC(=O)[C@@]2(C(F)(F)F)CC(c3cc(F)cc(F)c3)=NO2)C1 [Example I-67] | 100 | 90 | 90 | 100 | 100 | 100 | 90 | 90 | 100 | – | – | – | – | – | –
9 | COC(=O)C1CCC(NC(=O)C2(C(F)(F)F)CC(c3cccc(F)c3)=NO2)C1 (mixture of isomers) [Example I-325] | 90 | 80 | 90 | 100 | 90 | 100 | 80 | 80 | 90 | – | – | – | – | – | –
10 | CCOC(=O)C1CCC(NC(=O)C2(C(F)(F)F)CC(c3cc(F)c(F)c(F)c3)=NO2)C1 (mixture of isomers) [Example I-185] | 80 | 80 | 80 | 100 | 90 | 90 | 90 | 80 | 90 | – | – | – | – | – | –
11 | O=C(O)[C@@H]1CC[C@H](NC(=O)[C@@]2(C(F)(F)F)CC(c3cc(F)cc(F)c3)=NO2)C1 [Example I-11, (1R,3S)-3-({[(5R)-3-(3,5-difluorophenyl)-5-(trifluoromethyl)-4,5-dihydro-1,2-oxazol-5-yl]carbonyl}amino)cyclopentanecarboxylic acid] | 90 | 80 | 80 | 90 | 80 | 90 | 80 | 80 | 80 | – | – | – | – | – | –
12 | Cc1cc(Cl)cc(C2=NOC(C(=O)NC3CCC(C(=O)OCC(F)(F)F)C3)(C(F)(F)F)C2)c1 (mixture of isomers) [Example I-844] | – | – | – | – | – | – | – | – | – | 90 | 80 | 90 | 100 | – | 100
13 | CC(C)(C)OC(=O)[C@H]1CC[C@@H](NC(=O)C2(C(F)(F)F)CC(c3cc(F)cc(F)c3)=NO2)C1 (relative stereo) [Example I-85, tert-butyl cis-3-({[3-(3,5-difluorophenyl)-5-(trifluoromethyl)-4,5-dihydro-1,2-oxazol-5-yl]carbonyl}amino)cyclopentanecarboxylate] | – | – | – | – | – | – | – | – | – | 80 | 90 | 90 | – | 80 | 90
14 | COC(=O)[C@H]1CC[C@H](NC(=O)[C@@]2(C(F)(F)F)CC(c3cc(F)cc(F)c3)=NO2)C1 [Example I-28] | – | – | – | – | – | – | – | – | – | 80 | 90 | 90 | 80 | – | 80
15 | COC(=O)[C@H]1CC[C@H](NC(=O)C2(C(F)(F)F)CC(c3cc(F)cc(F)c3)=NO2)C1 (stereo partly drawn) [Example I-20, methyl (1S,3S)-3-({[3-(3,5-difluorophenyl)-5-(trifluoromethyl)-4,5-dihydro-1,2-oxazol-5-yl]carbonyl}amino)cyclopentanecarboxylate] | – | – | – | – | – | – | – | – | – | 90 | 90 | 90 | – | 80 | 80
